The structures appear in SMILES notation. pIC50: −log10 of the molar value.

Results on 2 compounds are retold here after ChEMBL document CHEMBL5154936, “Scaffold Hopping Strategy to Identify Prostanoid EP4 Receptor Antagonists for Cancer Immunotherapy” (J Med Chem, 2022).

In data set [1] the target is Prostaglandin E2 receptor EP4 subtype (Mus musculus, UniProt P32240). Briefly: Antagonist activity at mouse EP4 receptor transfected in CHO/Galpha16 cells preincubated for 15 mins followed by PGE2 addition by calcium flux assay. The format is functional, cell-based. (In general: A change in cytosolic calcium serves as a functional read-out for many receptors and channels.)
Sequence of Prostaglandin E2 receptor EP4 subtype (Mus musculus, UniProt P32240) (P32240 whole entry): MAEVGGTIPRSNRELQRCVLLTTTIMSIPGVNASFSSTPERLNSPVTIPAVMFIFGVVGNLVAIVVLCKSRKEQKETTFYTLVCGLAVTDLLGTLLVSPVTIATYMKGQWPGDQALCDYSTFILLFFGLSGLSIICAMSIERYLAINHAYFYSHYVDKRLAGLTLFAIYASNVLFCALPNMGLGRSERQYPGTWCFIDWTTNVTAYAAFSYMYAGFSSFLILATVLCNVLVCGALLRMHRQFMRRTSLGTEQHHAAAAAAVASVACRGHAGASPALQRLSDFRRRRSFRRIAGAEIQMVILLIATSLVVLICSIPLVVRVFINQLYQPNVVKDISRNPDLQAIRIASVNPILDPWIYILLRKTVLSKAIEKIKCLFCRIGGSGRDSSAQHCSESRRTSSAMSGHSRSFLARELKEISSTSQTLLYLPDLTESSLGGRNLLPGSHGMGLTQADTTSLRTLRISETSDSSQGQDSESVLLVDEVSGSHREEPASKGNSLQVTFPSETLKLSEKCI

Data set [2] addresses T1, CYP1A2 (Homo sapiens, UniProt P05177).
T1 sequence (P05177 whole entry): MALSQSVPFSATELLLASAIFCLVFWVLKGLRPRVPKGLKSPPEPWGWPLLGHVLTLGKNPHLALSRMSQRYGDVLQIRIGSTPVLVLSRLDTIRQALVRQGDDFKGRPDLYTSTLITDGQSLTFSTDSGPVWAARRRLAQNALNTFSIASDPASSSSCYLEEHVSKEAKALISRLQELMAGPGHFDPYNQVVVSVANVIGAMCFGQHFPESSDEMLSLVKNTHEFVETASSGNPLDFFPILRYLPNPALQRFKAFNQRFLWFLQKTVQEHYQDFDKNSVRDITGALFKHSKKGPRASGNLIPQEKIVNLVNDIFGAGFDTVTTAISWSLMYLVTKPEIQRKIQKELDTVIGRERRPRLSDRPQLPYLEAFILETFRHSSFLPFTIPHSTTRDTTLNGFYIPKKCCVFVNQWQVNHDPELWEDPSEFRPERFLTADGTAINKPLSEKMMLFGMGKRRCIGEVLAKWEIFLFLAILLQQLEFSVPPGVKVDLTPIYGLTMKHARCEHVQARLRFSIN
Description: Inhibition of CYP1A2 (unknown origin) at 20 uM. The format is ADME.

Data set [3] addresses CYP2E1 (Homo sapiens, UniProt P05181). Briefly: Inhibition of CYP2E1 (unknown origin) at 20 uM. The format is ADME.
For data set [4], the target named is Prostaglandin E2 receptor EP4 subtype (Homo sapiens, UniProt P35408). Description: Antagonist activity at human EP4 receptor transfected in CHO/Galpha16 cells preincubated for 15 mins followed by PGE2 addition by calcium flux assay. The format is functional, cell-based.
Sequence of Prostaglandin E2 receptor EP4 subtype (Homo sapiens, UniProt P35408) (P35408 whole entry): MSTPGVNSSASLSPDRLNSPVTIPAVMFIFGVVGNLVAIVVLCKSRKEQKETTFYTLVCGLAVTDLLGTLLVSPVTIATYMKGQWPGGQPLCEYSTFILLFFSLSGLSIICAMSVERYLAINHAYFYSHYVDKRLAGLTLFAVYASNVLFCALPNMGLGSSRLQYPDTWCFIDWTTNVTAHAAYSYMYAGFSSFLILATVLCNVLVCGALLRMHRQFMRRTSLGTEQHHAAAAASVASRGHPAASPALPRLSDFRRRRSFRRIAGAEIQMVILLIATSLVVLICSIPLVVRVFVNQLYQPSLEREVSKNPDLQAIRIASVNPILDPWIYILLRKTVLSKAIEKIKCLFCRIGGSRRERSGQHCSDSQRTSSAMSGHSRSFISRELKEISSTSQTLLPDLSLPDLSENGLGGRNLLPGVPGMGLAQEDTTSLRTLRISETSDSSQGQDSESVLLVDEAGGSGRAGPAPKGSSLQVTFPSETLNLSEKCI
For data set [5], the system named is Panc02. Briefly: Cytotoxicity against mouse Panc02 cells assessed as reduction in cell viability incubated for 72 hrs by CCK-8 assay. The following applies: Panc02, 72 h. (In general: Formazan colour is commonly taken as a measure of viable cells.)
Data set [6] concerns the target CYP2D6 (Homo sapiens, UniProt P10635). Briefly: Inhibition of CYP2D6 (unknown origin) at 20 uM. The format is ADME.
A short description of data set [7]: Metabolic stability in mouse liver microsomes assessed as parent compound remaining at 10 uM measured after 60 mins. The format is ADME, Microsome. The following applies: read-out: Stability.
Data set [8] deals with Prostaglandin E2 receptor EP2 subtype (Homo sapiens, UniProt P43116). Description: Antagonist activity at human EP2 receptor transfected in CHO/Galpha16 cells preincubated for 15 mins followed by PGE2 addition by calcium flux assay. The format is functional, cell-based.
Sequence of Prostaglandin E2 receptor EP2 subtype (P43116 whole entry): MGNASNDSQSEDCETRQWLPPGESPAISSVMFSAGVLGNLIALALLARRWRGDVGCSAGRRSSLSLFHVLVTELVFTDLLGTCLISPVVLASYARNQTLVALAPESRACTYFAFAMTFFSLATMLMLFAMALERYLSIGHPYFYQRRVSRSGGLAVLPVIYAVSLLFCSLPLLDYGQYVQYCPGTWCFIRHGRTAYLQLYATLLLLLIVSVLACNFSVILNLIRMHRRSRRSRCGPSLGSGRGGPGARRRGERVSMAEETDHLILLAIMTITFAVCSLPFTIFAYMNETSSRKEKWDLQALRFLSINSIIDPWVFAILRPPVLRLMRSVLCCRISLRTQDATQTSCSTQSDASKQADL
Data set [9] deals with CYP2C9 (Homo sapiens, UniProt P11712). Description: Inhibition of CYP2C9 (unknown origin) at 20 uM. The format is ADME.
Sequence of CYP2C9 (P11712 whole entry): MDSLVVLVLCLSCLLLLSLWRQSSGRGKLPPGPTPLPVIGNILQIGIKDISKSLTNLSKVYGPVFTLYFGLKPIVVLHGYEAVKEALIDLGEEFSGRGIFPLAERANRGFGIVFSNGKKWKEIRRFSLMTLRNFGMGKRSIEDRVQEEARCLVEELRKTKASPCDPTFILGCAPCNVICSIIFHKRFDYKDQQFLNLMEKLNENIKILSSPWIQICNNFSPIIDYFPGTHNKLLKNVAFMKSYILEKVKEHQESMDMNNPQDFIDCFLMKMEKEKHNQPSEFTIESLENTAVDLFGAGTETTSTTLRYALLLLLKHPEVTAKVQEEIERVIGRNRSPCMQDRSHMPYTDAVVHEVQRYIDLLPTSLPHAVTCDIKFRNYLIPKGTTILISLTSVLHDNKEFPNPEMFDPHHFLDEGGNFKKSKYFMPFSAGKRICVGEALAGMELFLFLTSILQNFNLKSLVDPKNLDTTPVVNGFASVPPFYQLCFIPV
Data set [10] relates to 3LL cell line. Briefly: Cytotoxicity against mouse 3LL cells assessed as reduction in cell viability incubated for 72 hrs by CCK-8 assay.
Data set [11] has as its system CT26. Description: Cytotoxicity against mouse CT26 cells assessed as reduction in cell viability incubated for 72 hrs by CCK-8 assay. Particulars: CT26, 72 h.
Data set [12] deals with T2, Prostaglandin E2 receptor EP1 subtype (Homo sapiens, UniProt P34995).
T2 sequence (P34995 whole entry): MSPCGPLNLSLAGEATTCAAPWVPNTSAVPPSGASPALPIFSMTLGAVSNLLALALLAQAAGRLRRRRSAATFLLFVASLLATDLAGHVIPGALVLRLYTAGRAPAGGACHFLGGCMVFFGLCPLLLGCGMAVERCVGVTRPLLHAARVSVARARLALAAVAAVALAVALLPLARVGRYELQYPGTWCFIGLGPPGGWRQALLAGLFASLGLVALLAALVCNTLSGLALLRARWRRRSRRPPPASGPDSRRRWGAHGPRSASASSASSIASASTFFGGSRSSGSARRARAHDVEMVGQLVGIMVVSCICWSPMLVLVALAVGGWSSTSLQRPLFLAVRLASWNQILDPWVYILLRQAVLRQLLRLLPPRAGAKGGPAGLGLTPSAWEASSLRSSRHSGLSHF
Description: Antagonist activity at human EP1 receptor transfected in CHO/Galpha16 cells preincubated for 15 mins followed by PGE2 addition by calcium flux assay. The format is functional, cell-based.

Data set [13] can be described thus: Metabolic stability in mouse liver microsomes assessed as half life. The format is ADME, Microsome.
Data set [14] is described as follows: Metabolic stability in human liver microsomes assessed as intrinsic clearance. The format is ADME, Microsome. The following applies: read-out: CLH. On the technique in general: Liver microsomes are vesicles of endoplasmic reticulum, rich in cytochrome P450 enzymes.
The subject of data set [15] is EMT6. Description: Cytotoxicity against mouse EMT6 cells assessed as reduction in cell viability incubated for 72 hrs by CCK-8 assay. The following applies: EMT6, 72 h.
The target of data set [16] is T3, CYP2B6 (Homo sapiens, UniProt P20813).
T3 sequence (P20813 whole entry): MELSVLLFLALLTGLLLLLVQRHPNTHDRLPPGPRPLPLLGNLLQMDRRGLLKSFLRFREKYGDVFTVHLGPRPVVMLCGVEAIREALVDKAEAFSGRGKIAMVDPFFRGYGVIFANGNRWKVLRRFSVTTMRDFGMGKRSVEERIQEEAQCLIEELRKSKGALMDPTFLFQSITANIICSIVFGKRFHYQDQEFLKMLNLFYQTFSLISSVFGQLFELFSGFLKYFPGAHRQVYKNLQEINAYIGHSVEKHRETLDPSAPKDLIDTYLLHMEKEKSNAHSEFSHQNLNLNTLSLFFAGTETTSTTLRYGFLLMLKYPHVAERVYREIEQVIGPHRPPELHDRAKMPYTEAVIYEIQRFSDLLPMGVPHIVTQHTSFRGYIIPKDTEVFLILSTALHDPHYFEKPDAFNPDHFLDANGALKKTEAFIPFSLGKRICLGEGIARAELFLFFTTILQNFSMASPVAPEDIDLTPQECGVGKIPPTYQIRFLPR
Briefly: Inhibition of CYP2B6 (unknown origin) at 20 uM. The format is ADME.

Data set [17] in a line: Metabolic stability in human liver microsomes assessed as half life. The format is ADME, Microsome.
Data set [18] in a line: Metabolic stability in mouse liver microsomes assessed as intrinsic clearance. The format is ADME, Microsome. Particulars: read-out: CLH.
Data set [19] can be described thus: Metabolic stability in human liver microsomes assessed as parent compound remaining at 10 uM measured after 60 mins. The format is ADME, Microsome. The following applies: read-out: Stability.
A short description of data set [20]: Cytotoxicity against HEK293 cells assessed as reduction in cell viability incubated for 72 hrs by CCK-8 assay. The format is toxicity, cell-based. Particulars: human.
Data set [21] deals with T4, Prostaglandin E2 receptor EP3 subtype (Homo sapiens, UniProt P43115).
T4 sequence (P43115 whole entry): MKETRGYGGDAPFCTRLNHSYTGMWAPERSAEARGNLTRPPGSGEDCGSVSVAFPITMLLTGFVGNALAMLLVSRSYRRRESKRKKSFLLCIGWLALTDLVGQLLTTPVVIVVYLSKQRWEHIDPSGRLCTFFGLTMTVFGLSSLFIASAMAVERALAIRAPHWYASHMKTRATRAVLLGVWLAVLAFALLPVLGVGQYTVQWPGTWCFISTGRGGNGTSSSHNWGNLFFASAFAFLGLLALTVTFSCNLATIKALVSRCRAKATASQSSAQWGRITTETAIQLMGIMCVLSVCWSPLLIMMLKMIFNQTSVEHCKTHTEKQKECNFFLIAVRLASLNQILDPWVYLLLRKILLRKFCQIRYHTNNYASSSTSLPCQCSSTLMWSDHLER
Briefly: Antagonist activity at human EP3 receptor transfected in CHO/Galpha16 cells preincubated for 15 mins followed by PGE2 addition by calcium flux assay. The format is functional, cell-based.

Data set [22] relates to CT26. Description: Antitumor activity against mouse CT26 cells allografted in BALB/c mouse assessed as tumor growth inhibition at 75 mg/kg, po administered once a day for 14 days. The format is functional. The following applies: CT26, 336 h, time 14 day, read-out: TGI.

Sequence of CYP2D6 (P10635 whole entry): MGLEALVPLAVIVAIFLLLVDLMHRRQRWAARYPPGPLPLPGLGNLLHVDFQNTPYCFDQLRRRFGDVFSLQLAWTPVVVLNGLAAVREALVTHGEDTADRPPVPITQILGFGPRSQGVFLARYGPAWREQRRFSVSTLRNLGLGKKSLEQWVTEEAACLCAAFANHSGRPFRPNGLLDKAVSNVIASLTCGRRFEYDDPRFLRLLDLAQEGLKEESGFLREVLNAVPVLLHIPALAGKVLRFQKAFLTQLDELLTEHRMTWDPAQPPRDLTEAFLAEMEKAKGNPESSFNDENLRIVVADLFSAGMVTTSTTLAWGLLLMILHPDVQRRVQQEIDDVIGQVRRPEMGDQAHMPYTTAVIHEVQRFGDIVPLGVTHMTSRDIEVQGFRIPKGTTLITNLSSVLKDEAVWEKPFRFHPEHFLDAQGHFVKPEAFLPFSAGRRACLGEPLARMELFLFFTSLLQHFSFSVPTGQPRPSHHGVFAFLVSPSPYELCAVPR
Sequence of CYP2E1 (P05181 whole entry): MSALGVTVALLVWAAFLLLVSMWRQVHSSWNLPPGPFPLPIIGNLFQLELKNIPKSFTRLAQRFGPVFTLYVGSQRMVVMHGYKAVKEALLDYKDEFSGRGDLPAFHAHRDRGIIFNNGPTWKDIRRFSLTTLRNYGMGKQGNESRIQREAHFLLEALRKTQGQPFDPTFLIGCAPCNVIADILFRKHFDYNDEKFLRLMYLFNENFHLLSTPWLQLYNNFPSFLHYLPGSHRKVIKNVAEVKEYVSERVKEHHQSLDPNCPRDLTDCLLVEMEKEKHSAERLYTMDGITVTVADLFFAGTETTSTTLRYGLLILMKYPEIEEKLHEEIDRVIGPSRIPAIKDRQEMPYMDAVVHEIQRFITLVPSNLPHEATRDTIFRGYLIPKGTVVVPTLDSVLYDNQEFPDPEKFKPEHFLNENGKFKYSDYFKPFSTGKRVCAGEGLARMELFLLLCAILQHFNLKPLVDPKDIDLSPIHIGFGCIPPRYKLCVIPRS

One may read the pIC50 as the negative decadic logarithm of the IC50, by convention in mol/L. Usually inhibition stands for the drop in the measured response relative to a control, in per cent. The term half-life denotes the time needed for the level to fall by half in the phase considered. Usually IC50 stands for the concentration needed to halve the response being measured. In the case of `C[C@H](NC(=O)c1c(Cc2ccc(C(F)(F)F)cc2)sc2c1CCOC2)c1ccc(C(=O)O)cc1`, the negative-log IC50 (pIC50) in [1] was 6.47; in data set [4], 8.68; in data set [5], less than 4.00; in data set [8], less than 5.00; in data set [10] it was less than 4.00; in [11] it was less than 4.00. In addition, the figures for the pIC50 in [12], in data set [15] and in data set [21] were less than 5.00, less than 4.00 and less than 5.00, respectively. In addition, the inhibition at 20 µM in data set [2] worked out at 69%; in data set [3], 26%; in data set [6], 62%; in data set [9], 24%; in data set [16] it was 68%. Besides, the remaining at 1 h, 10 µM in data set [7] is 87.9%; in data set [19], 90%. For the same compound, the half-life in data set [13] and in data set [17] was greater than 2.42 h each time. Besides, the microsomal CLint in data set [14] and in data set [18] was less than 9.6 µL/min/mg in each case. Also, in data set [20], the IC50 at 72 h is greater than 100 µM.

Regarding `C[C@H](NC(=O)c1c(C(F)F)nn(C)c1Oc1cccc(C(F)(F)F)c1)c1ccc(C(=O)O)cc1` [PALUPIPRANT], the pIC50 in data set [1] was 6.99. The inhibition at 20 µM in [2] turned out to be 59%; in data set [3] it was 21%; in [6], 65%; in [9], 33%; in data set [16] it was 77%. In addition, the remaining at 1 h, 10 µM was 95.7% in data set [7] and 83.6% in [19]. For the same compound, the half-life in data set [13] and in data set [17] was greater than 2.42 h throughout. The microsomal CLint in data set [14] and in data set [18] was less than 9.6 µL/min/mg each time. Besides, the inhibition in vivo at 75 mg/kg in data set [22] stood at 39.9%. For the same compound, the IC50 at 72 h in [20] was greater than 100 µM.
